Our source for the IC50 values is ChEMBL document CHEMBL5608172, “Structural modification strategies of triazoles in anticancer drug development” (Eur J Med Chem, 2024).

Data set [1] concerns HepG2. The data set can be described thus: Antiproliferative activity against human HepG2 cells assessed as inhibition of cell growth measured after 72 hrs by MTT assay. The settings on record: HepG2, 72 h. It is filed as functional, cell-based.
The subject of the next data set is Detroit 562. The data set can be described thus: Antiproliferative activity against human Detroit 562 cells. Type of data set: functional, cell-based.
Data set [2] relates to A549. Description: Antiproliferative activity against human A549 cells assessed as reduction in cell growth incubated for 72 hrs by MTT assay. Type of data set: functional, cell-based. Particulars: A549, 72 h.
The test system of data set [3] is HepG2. The data set can be described thus: Anticancer activity against human HepG2 cells. It is filed as functional, cell-based.
A further data set concerns U-937. Description: Antiproliferative activity against human U-937 cells. It is filed as functional, cell-based.
In the next data set the test system is HL-60. The data set can be described thus: Antiproliferative activity against human HL-60 cells. Type of data set: functional, cell-based.
The next data set concerns NCI-H1975. Description: Antiproliferative activity against human NCI-H1975 cells assessed as reduction in cell growth incubated for 72 hrs by cell-titer glo assay. Particulars: NCI-H1975, 72 h. It is filed as functional, cell-based.
The subject of another data set is NCI-H1650. Description: Antiproliferative activity against human NCI-H1650 cells assessed as reduction in cell growth incubated for 72 hrs by cell-titer glo assay. Type of data set: functional, cell-based. Particulars: NCI-H1650, 72 h.
In data set [4] the test system is K562. The data set can be described thus: Antiproliferative activity against human K562 cells assessed as reduction in cell viability incubated for 72 hrs by MTT assay. Type of data set: functional, cell-based. The settings on record: K562, 72 h. For orientation: Tetrazolium dyes change colour on reduction, which living cells bring about.
The test system of data set [5] is PC-3. Description: Antiproliferative activity against human PC-3 cells assessed as reduction in cell viability incubated for 72 hrs by MTT assay. Type of data set: functional, cell-based. The settings on record: PC-3, 72 h.
Data set [6] deals with MCF7. The data set can be described thus: Anticancer activity against human MCF7 cells assessed as reduction in cell viability incubated for 48 hrs by MTT assay. It is filed as functional, cell-based. The settings on record: MCF7, 48 h.
Data set [7] deals with HCT-116. The data set can be described thus: Anticancer activity against human HCT-116 cells assessed as reduction in cell viability incubated for 48 hrs by MTT assay. It is filed as functional, cell-based. The settings on record: HCT-116, 48 h.
Data set [8] has as its system MCF7. The data set can be described thus: Anticancer activity against human MCF7 cells. Type of data set: functional, cell-based.
A short description of data set [9]: Antiproliferative activity against human WS1 cells assessed as reduction in cell viability incubated for 48 hrs by MTT assay. Type of data set: toxicity, cell-based.
For data set [10], the system named is A549. Description: Antiproliferative activity against human A549 cells assessed as reduction in cell viability incubated for 48 hrs by MTT assay. It is filed as toxicity, cell-based. Particulars: A549, 48 h.
Data set [11] concerns K562. Description: Cytotoxicity against human K562 cells assessed as reduction in cell growth incubated for 72 hrs by MTT assay. It is filed as functional, cell-based. Particulars: K562, 72 h.
For data set [12], the system named is PC-3. Description: Cytotoxicity against human PC-3 cells assessed as reduction in cell growth incubated for 72 hrs by MTT assay. It is filed as functional, cell-based. Particulars: PC-3, 72 h.
For another data set, the system named is SW-620. Description: Antiproliferative activity against human SW620 cells assessed as inhibition of cell growth measured after 72 hrs by MTT assay. Type of data set: functional, cell-based. The settings on record: SW-620, 72 h.
Another data set has as its system Huh-7. The data set can be described thus: Cytotoxicity against human Huh-7 cells assessed as cell growth inhibition incubated for 72 hrs by SRB assay. It is filed as functional, cell-based. Particulars: Huh-7, 72 h. A general note: The SRB assay estimates cell density from bound dye.
The next data set relates to HeLa. Description: Cytotoxicity against human HeLa cells by MTT assay. It is filed as functional, cell-based.
In data set [13] the test system is MCF7. The data set can be described thus: Cytotoxicity against human MCF7 cells assessed as reduction in cell growth incubated for 72 hrs by MTT assay. Type of data set: functional, cell-based. The settings on record: MCF7, 72 h.
A short description of data set [14]: Cytotoxicity against hTERT Lung Fibroblast cells assessed as reduction in cell growth incubated for 72 hrs by MTT assay. Particulars: human. It is filed as toxicity, cell-based.
For data set [15], the system named is MCF7. The data set can be described thus: Antiproliferative activity against human MCF7 cells assessed as inhibition of cell growth measured after 72 hrs by MTT assay. The settings on record: MCF7, 72 h. Type of data set: functional, cell-based.
Data set [16] relates to HCT-116. Description: Cytotoxicity against human HCT-116 cells assessed as reduction in cell viability measured after 48 hrs by MTT assay. Type of data set: functional, cell-based. The settings on record: HCT-116, 48 h.
Another data set concerns SCC-25. Description: Antiproliferative activity against human SCC-25 cells. It is filed as functional, cell-based.
The test system of another data set is Fibroblast. The data set can be described thus: Antiproliferative activity against human Fibroblast cells. It is filed as functional, cell-based.
For data set [17], the system named is HCT-116. The data set can be described thus: Antiproliferative activity against human HCT-116 cells assessed as inhibition of cell growth measured after 72 hrs by MTT assay. Type of data set: functional, cell-based. The settings on record: HCT-116, 72 h.
The subject of data set [18] is MCF7. Description: Antiproliferative activity against human MCF7 cells assessed as reduction in cell viability. It is filed as functional, cell-based.
The next data set deals with MDA-MB-231. Description: Antiproliferative activity against human MDA-MB-231 cells assessed as reduction in cell viability. It is filed as functional, cell-based.

As usually defined, the IC50 is the point on the concentration scale where inhibition reaches its midpoint.

As to `Cc1ccc(/N=N/c2sc(N/N=C/c3cn(-c4ccccc4)nc3-c3nnn(-c4ccc(Br)cc4)c3C)nc2C)cc1`, the IC50 with HepG2 [1] was found to be 2.3 µM.

`COCCOc1cc2ncnc(Nc3cccc(-c4cn(-c5ccccc5/C=C/C(=O)c5cc(OC)c(OC)c(OC)c5)nn4)c3)c2cc1OCCOC` returned an IC50 with Detroit 562 of 0.673 µM.

Consider `COc1ccc(/C=C\c2cc(OC)c(OC)c(OC)c2)cc1O` [COMBRETASTATIN A4], for which, in the data set with A549 [2], the concentration for half-maximal inhibition (IC50) came to 0.04 µM.

In the data set with HepG2 [3], `Nn1c(Sc2c(O)c3ccccc3oc2=O)nnc1-c1ccc(Cl)cc1` gave an IC50 of 1.78 µM.

In the case of `Nc1ccc(-c2nnc(Sc3nc4ccccc4n4c(Nc5ccccc5)nnc34)o2)cc1`, the concentration for half-maximal inhibition (IC50) in the data set on U-937 amounted to 2.65 µM; in the data set on HL-60, 2.72 µM.

For the molecule `C#Cc1cccc(Nc2ncnc3cc(OCCOC)c(OCCOC)cc23)c1` [ERLOTINIB], the figures for the IC50 in the data set with NCI-H1975 and with NCI-H1650 were 37 µM and 40 µM, respectively.

`CC(C)(C)c1ccc(-c2cn(Cc3cc4c(o3)-c3ccccc3C(=O)C4=O)nn2)cc1`: the results for the IC50 with K562 [4] and in the data set on PC-3 [5] were 0.9 µM and 1.4 µM, respectively.

In the case of `CN(C)c1ccc(/C=N/c2nnc(S[C@@H]3O[C@H](CO)[C@@H](O)[C@H](O)[C@H]3O)s2)cc1`, the values for the 50% inhibitory concentration (IC50) in the data set on MCF7 [6] and with HCT-116 [7] were 17.3 µM and 12.1 µM, respectively.

With `Cc1cc(=O)oc2cc(-n3cc(-c4cccc(-c5cn(-c6ccc7c(C)cc(=O)oc7c6)nn5)c4)nn3)ccc12`, half-maximal inhibition in the data set with MCF7 [8] (IC50) required 0.3 µM.

`COc1cc(C(=O)/C=C/c2ccccc2)cc(OC)c1OC` registered an IC50 in the data set with Detroit 562 of 3.07 µM.

As to `Cc1ccc(NC(=O)c2ccc(CN3CCN(C)CC3)cc2)cc1Nc1nccc(-c2cccnc2)n1` [IMATINIB], the IC50 at 48 h in data set [9] was determined as 9.6 µM. For the same molecule, the IC50 in the data set on A549 [10] was determined as 65 µM.

Take `Cc1coc2c1C(=O)C(=O)c1c-2ccc2c1CCCC2(C)C` [TANSHINONE IIA]: the concentration for half-maximal inhibition (IC50) is 4.6 µM in the data set on K562 [11] and 3.2 µM in the data set on PC-3 [12].

As to `c1ccc(-n2cc(-c3nc4ccc(C5=NCCN5)cc4s3)nn2)cc1`, the IC50 in the data set with SW-620 is 0.25 µM.

As to `Cc1ccc(Cn2cc(Cn3c(Cl)cc(=O)n(C)c3=O)nn2)cc1`, the IC50 in the data set with Huh-7 came to 7.7 µM; with HeLa, 4.5 µM.

Regarding `C[C@H]1[C@H](C)CC[C@]2(C(=O)O)CC[C@]3(C)C(=CC[C@@H]4[C@@]5(C)CC[C@H](O)C(C)(C)[C@@H]5CC[C@]43C)[C@H]12` [URSOLIC ACID], in the data set with MCF7 [13], the IC50 worked out at 25.1 µM. For the same molecule, the IC50 at 72 h in data set [14] is 90.9 µM.

Turning to `CC(=O)O[C@H]1CC[C@]2(C)[C@H]3CC=C4[C@@H]5[C@@H](C)[C@H](C)CC[C@]5(C(=O)OCc5cn(Cc6nonc6C)nn5)CC[C@@]4(C)[C@]3(C)CC[C@H]2C1(C)C`, the concentration for half-maximal inhibition (IC50) in the data set with MCF7 [13] stood at 1.55 µM. Moreover, the IC50 at 72 h in data set [14] was determined as 10.4 µM.

`COc1cc([N+](=O)[O-])ccc1-n1cc(CN2C(=O)S/C(=C\c3cn(-c4ccccc4)nc3-c3ccccc3)C2=O)nn1`: the IC50 in the data set on MCF7 [15] was 0.43 µM.

As to `CC(=O)O[C@@H]1O[C@H](Cn2cc(COc3cccc4cccnc34)nn2)[C@H](OC(C)=O)[C@H](OC(C)=O)[C@H]1OC(C)=O`, in the data set on HCT-116 [16], the IC50 stood at 10.8 µM.

`CC(C)CCC1=C(OCc2cn(-c3cccc(Cl)c3)nn2)C(=O)c2ccccc2C1=O`: the IC50 worked out at 9.81 µM in the data set with SCC-25 and 210 µM in the data set on Fibroblast.

`CCc1nnc2c(-c3ccccc3)cc3c(Br)c(OC)c(OC)cc3n12`: in the data set on HCT-116 [17], the IC50 stood at 0.5 µM.

For the molecule `CC(C)[C@@H]1CC[C@@H](C)C[C@@H]1On1cc(CN2C(=O)C(=O)c3ccccc32)nn1`, the IC50 in the data set on MCF7 [18] was 1.34 µM; with MDA-MB-231, 1.79 µM.
